Assay results published in publication PMC2999882 (Molecular pharmacology, 2008).
Read-outs that look alike come from different tables or passages of the source.

Tests used:
α7 nAChR [1] = biological target: α7 nAChR (Homo sapiens, UniProt P36544)
5HT3 receptors [2] = biological target: T1, 5HT3 receptors (Homo sapiens, UniProt P46098); details: cited from earlier work
T1 sequence (P46098 24-478): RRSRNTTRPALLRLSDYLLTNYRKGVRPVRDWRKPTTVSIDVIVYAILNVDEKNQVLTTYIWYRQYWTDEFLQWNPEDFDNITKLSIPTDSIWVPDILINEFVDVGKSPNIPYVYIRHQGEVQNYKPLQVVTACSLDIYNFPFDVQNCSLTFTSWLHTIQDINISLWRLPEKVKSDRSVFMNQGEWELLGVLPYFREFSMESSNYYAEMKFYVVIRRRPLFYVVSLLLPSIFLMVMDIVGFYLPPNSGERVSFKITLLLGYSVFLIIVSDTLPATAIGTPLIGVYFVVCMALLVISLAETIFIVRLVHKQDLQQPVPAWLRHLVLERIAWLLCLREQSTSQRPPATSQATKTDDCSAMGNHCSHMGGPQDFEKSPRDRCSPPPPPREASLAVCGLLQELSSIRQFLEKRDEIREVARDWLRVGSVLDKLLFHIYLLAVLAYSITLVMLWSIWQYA

α4β2 nAChR [3] = biological target: T2, α4β2 nAChR (Homo sapiens, UniProt P17787+P43681); assay: cell-based; type: cell-based
T2 sequence (P43681 29-627 limits assumed): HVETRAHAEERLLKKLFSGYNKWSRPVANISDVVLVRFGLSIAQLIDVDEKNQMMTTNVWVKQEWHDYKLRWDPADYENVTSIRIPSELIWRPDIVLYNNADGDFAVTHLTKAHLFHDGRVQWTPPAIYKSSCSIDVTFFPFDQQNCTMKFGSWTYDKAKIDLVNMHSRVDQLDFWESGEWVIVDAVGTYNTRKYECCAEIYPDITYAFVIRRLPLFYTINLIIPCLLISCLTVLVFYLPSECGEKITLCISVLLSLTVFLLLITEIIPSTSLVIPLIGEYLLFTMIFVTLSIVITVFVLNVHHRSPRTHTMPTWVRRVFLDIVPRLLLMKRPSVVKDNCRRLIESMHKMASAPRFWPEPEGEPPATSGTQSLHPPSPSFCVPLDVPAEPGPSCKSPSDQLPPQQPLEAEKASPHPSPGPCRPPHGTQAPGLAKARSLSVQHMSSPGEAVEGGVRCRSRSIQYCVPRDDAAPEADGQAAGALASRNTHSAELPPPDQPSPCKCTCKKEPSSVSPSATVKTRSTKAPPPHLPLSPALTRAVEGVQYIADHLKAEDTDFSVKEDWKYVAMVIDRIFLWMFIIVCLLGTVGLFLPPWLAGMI
T2 sequence (P17787 26-502): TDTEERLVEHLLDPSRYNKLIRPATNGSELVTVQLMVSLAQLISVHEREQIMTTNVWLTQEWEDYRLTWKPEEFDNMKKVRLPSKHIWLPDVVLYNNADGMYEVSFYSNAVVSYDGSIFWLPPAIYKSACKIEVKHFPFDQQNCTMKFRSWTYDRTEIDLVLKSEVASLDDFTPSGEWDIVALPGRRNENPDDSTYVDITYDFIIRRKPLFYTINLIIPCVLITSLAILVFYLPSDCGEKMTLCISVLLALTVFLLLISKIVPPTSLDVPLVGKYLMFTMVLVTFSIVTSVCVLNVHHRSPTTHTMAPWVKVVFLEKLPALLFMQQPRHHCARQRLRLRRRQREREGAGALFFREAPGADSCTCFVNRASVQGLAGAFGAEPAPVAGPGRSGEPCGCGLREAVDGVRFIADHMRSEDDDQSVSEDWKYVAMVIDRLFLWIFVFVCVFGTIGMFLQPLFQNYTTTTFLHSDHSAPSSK

α4β2 nAChR [4] = biological target: T2, α4β2 nAChR; type: cell-based
[5] = biological target: T3, muscle type (α1β1εδ) nAChR (Homo sapiens, UniProt P02708+Q04844+Q07001); type: cell-based
T3 sequence (P02708 21-457): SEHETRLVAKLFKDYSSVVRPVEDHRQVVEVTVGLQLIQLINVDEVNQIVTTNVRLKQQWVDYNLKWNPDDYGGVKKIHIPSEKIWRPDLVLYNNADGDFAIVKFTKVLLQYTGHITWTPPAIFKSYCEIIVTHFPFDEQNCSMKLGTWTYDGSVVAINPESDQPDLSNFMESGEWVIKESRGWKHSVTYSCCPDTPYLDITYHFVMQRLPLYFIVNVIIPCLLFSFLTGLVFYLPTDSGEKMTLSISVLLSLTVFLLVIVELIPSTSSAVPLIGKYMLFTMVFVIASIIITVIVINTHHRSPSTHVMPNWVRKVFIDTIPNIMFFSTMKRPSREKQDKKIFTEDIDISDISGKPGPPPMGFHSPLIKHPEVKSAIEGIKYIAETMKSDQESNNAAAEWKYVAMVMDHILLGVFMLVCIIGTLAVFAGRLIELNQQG
T3 sequence (P11230 24-501 partner): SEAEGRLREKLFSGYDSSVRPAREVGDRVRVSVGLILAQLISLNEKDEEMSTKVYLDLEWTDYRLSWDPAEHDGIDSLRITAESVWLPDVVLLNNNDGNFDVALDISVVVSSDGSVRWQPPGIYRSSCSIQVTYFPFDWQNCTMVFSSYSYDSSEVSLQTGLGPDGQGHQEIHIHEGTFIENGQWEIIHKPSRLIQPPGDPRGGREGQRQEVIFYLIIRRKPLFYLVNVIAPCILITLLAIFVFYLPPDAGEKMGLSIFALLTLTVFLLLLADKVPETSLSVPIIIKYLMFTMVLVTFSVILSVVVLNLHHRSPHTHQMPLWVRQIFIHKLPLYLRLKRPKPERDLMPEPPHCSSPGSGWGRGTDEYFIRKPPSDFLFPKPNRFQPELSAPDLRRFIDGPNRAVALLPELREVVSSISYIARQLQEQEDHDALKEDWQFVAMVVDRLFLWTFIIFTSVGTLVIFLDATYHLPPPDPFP
T3 sequence (Q04844 21-493): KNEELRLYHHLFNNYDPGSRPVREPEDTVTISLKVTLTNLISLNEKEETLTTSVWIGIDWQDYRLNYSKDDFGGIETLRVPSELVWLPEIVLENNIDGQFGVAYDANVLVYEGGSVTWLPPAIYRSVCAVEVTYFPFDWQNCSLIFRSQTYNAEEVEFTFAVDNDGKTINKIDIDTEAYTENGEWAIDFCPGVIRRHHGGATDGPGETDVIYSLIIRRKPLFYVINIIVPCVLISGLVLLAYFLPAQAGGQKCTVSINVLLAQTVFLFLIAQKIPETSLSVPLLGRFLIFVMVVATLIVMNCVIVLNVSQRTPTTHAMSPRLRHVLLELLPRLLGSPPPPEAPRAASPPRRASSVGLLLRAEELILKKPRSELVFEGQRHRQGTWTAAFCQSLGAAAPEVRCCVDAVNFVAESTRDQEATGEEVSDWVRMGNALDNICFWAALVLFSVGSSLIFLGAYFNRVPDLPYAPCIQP
T3 sequence (Q07001 22-517): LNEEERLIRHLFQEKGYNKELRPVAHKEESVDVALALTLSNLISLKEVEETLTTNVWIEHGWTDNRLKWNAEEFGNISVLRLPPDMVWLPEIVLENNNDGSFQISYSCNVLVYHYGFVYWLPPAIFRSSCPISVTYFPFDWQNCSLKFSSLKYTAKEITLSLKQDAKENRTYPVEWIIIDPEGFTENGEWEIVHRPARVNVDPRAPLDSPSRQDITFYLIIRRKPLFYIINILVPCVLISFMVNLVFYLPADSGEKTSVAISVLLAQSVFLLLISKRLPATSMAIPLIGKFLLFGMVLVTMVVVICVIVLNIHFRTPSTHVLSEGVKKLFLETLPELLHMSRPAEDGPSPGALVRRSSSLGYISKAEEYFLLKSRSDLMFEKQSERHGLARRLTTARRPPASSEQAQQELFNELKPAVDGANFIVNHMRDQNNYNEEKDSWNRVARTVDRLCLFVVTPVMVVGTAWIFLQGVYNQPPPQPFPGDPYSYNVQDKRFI

[6] = biological target: T3, muscle type (α1β1εδ) nAChR; type: cell-based; remark: listed apart in the source
5HT3 receptors [7] = biological target: T1, 5HT3 receptors; type: cell-based
5HT3 receptors [8] = biological target: T1, 5HT3 receptors; type: cell-based; remark: listed apart in the source
α3β4 nAChR = α3β4 nAChR (Homo sapiens, UniProt P30926+P32297)
Sequence of α3β4 nAChR (P32297 32-505): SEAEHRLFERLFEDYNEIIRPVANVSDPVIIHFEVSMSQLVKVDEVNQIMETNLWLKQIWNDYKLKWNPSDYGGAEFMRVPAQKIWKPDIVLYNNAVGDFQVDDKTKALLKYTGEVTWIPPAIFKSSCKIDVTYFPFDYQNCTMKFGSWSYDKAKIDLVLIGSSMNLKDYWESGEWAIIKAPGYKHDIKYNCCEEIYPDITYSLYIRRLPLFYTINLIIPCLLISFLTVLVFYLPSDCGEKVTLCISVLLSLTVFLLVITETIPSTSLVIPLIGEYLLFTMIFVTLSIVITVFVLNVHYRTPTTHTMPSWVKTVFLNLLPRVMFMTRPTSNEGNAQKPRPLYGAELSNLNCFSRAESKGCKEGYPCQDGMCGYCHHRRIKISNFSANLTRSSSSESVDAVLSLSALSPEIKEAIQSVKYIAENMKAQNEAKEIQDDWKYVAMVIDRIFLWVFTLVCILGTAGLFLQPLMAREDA
Sequence of α3β4 nAChR (P30926 22-498): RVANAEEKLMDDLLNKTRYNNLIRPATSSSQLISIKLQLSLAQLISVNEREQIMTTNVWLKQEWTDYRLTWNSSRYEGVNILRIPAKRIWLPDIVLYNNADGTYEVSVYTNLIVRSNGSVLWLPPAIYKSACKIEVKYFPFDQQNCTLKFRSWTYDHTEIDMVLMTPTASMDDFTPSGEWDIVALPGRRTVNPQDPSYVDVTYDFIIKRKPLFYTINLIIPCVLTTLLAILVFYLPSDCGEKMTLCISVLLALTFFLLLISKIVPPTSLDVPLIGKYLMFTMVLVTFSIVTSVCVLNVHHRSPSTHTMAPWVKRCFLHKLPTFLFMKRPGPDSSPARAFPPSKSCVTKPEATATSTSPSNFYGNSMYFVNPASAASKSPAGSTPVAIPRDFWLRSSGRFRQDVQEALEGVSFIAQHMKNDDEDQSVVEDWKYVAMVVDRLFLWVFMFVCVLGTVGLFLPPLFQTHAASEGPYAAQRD

α7 nAChR [9] = details: cited from earlier work
other nAChR tested = details: cited from earlier work

Sequence of α7 nAChR (Homo sapiens, UniProt P36544) (P36544 23-502): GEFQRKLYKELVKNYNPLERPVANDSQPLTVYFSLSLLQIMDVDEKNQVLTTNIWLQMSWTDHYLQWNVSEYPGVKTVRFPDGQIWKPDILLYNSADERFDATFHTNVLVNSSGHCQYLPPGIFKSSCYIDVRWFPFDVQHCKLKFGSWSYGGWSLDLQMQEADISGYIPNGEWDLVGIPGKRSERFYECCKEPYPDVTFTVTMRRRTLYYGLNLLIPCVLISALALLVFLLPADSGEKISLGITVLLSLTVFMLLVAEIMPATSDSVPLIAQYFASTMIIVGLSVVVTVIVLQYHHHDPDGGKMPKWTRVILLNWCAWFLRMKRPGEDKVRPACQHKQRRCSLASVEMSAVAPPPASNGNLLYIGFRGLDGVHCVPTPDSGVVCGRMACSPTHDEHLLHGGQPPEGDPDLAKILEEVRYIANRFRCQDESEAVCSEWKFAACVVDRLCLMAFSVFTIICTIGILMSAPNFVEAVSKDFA

Row | Molecule | α4β2 Activity (α4β2 nAChR [3]) | α4β2 Inhibition (α4β2 nAChR [4]) | α1β1εδ Activity [5] | α1β1εδ Inhibition [6] | 5HT3 Activity (5HT3 receptors [7]) | 5HT3 Inhibition (5HT3 receptors [8]) | α7 Imax (α7 nAChR [1]) | α3β4 Imax (α3β4 nAChR) | also measured
1 | OCCN1CCCC1 [1-(2-hydroxyethyl)pyrrolidine] | – | – | – | – | – | – | – | – | agonist activity on α7 (α7 nAChR [1]): inactive
2 | O=C1NCC2(CN3CCC2CC3)O1 (single isomer, unassigned; (-)) [AR-R17779, (−)-Spiro[1-azabicyclo[2.2.2]octane-3,5′-oxazolidin-2′-one]] | – | – | – | – | – | – | – | – | Effects on 5HT3 Receptors (5HT3 receptors [2]): None
3 | COc1ccc(/C=C2\CN3CCC2CC3)cc1.Cl [MeOBQNZ, (Z)-3-(4-methoxybenzylidene)-1-azoniabicyclo[2.2.2]octane chloride] | N | 56 ± 4% | ≤1% | 76 ± 6% | N | 80 ± 16% | 0.09 ± 0.01 | <0.01 | EC50 (α7 nAChR [1]): 1.1 ± 0.8 µM
4 | CN1[C@@H]2CC[C@H]1CC(=O)C2 [Tropinone] | – | – | – | – | – | – | – | – | Effects on 5HT3 Receptors (5HT3 receptors [2]): Neither agonist nor antagonist activity detected
5 | CC[N+](C)(C)CC [dEdMA, diethyldimethylammonium] | N | 52 ± 5% | N | N.S. | N | N.S. | 0.95 ± 0.06 | 0.06 ± 0.01 | selectivity classification (α7 nAChR [1]): α7-selective agonists; EC50 (α7 nAChR [1]; read-out: α7 EC50): 197 ± 37 µM; α3β4 efficacy, fold difference (versus ETMA) (α3β4 nAChR): greater than 10 fold
6 | C(=C1\CN2CCC1CC2)/c1ccccc1.Cl [BQNE, E-3-benzylidene-1-azoniabicyclo[2.2.2]-octane chloride] | N | 77 ± 2% | N | 70 ± 7% | N | 94 ± 5% | 0.28 ± 0.01 | <0.01 | selectivity classification (α7 nAChR [1]): α7-selective
7 | C(=C1/CN2CCC1CC2)/c1ccccc1.Cl [BQNZ, (Z)-3-benzylidene-1-azoniabicyclo[2.2.2]octane chloride] | ≈1% | 74 ± 6% | ≈7% | N.S. | N | 95 ± 4% | 0.11 ± 0.01 | 0.10 ± 0.01 | EC50 (α7 nAChR [1]): 7.3 ± 0.7 µM; agonist character at α3β4 (α3β4 nAChR): significant activation
8 | CC(=O)OCC[N+](C)(C)C [ACh, acetylcholine, reference compound] | – | – | – | – | – | – | 1.0 | – | α3β4 Imax (α3β4 nAChR; peak current, relative to ACh maximum (ACh constrained to 1)): 1.0
9 | CN1[C@@H]2CC[C@H]1C[C@@H](OC(=O)c1c[nH]c3ccccc13)C2 [Tropisetron] | – | – | – | – | – | – | – | – | Effects on 5HT3 Receptors (5HT3 receptors [2]; ref Macor et al., 2001, Papke et al., 2005a): Competitive antagonist
10 | C[N+]12CCC(CC1)CC2.[I-] [MQN, 1-methyl-1-azoniabicyclo[2.2.2]octane iodide] | N | 72 ± 4% | N | N.S. | N | N.S. | 1.0 ± 0.1 | 0.025 ± 0.006 | agonist character at α7 (α7 nAChR [1]): fully effective; agonist character at α3β4 (α3β4 nAChR): essentially all activity was lost
11 | OCCN1CCCCC1 [1-(2-hydroxyethyl)piperidine] | – | – | – | – | – | – | – | – | agonist activity on α7 (α7 nAChR [1]; 300 µM, data not shown): inactive
12 | quinuclidinone [QN-O] | N | N.S. | N | N.S. | N | N.S. | 0.73 ± 0.04 | ≥0.07± | selectivity classification (α7 nAChR [1]): α7-selective agonists; α7 potency, fold lower than related agonists that lack the oxygen group (e.g., ETMA and QN) (α7 nAChR [1]): at least 10 fold; EC50 (α7 nAChR [1]; read-out: α7 EC50): 78 ± 11 µM; EC50 (α3β4 nAChR; read-out: α3β4 EC50): > 1000 µM
13 | O=C(N[C@H]1CN2CCC1CC2)c1cc2ccoc2cn1 [PHA-543,613, N-[(3R)-1-azabicyclo[2.2.2]oct-3-yl]furo[2,3-c]pyridine-5-carboxamide] | – | – | – | – | – | – | – | – | 5HT3 receptors, inhibitory activity at (5HT3 receptors [2]; ref Wishka et al., 2006): Inhibitory activity at ≈ 600 nM
14 | CN1[C@@H]2CCC[C@H]1CC2 [Tropane] | – | – | – | – | – | – | – | – | Effects on 5HT3 Receptors (5HT3 receptors [2]): Neither agonist nor antagonist activity detected
15 | COc1ccc(/C=C2/CN3CCC2CC3)cc1.Cl [MeOBQNE, (E)-3-(4-methoxybenzylidene)-1-azoniabicyclo[2.2.2]-octane chloride] | N | 81 ± 2% | N | 90 ± 2% | N | 94 ± 5% | 0.41 ± 0.03 | <0.01 | –
16 | C[N+]1(C)CCCC(O)C1 (centres unmarked) [N,N-dimethyl-3-piperidinol] | – | – | – | – | – | – | – | – | agonist activity on α7 (α7 nAChR [1]): inactive
17 | O=C(N[C@@H]1C[C@H]2CCN(C2)C1)c1cc2ccoc2cn1 [PHA-709829, N-[(3R,5R)-1-azabicyclo[3.2.1]oct-3-yl]furo[2,3-c]pyridine-5-carboxamide] | – | – | – | – | – | – | – | – | 5HT3 receptors, inhibitory activity at (5HT3 receptors [2]; ref Acker et al., 2008): Inhibitory activity at ≈ 300 nM
18 | O=C(Oc1ccc(Br)cc1)N1CCN2CCC1CC2 [SSR-180711] | – | – | – | – | – | – | – | – | agonist character at α7 (Summary) (α7 nAChR [9]; binding and voltage-clamp experiments, ref Biton et al., 2007): A relatively potent partial agonist with selectivity for α7 compared with other nAChR subtypes tested established by binding and voltage-clamp experiments.
19 | c1cncc(C2CCC3CCN2CC3)c1 (centres unmarked) [TC-1698, 2-(3-pyridyl)-1-azabicyclo[3.2.2]nonane] | – | – | – | – | – | – | – | – | agonist character at α7 (Summary) (α7 nAChR [9]): A potent full agonist for α7 nAChR with negligible activation of the heteromeric neuronal nAChR tested but with low-potency partial agonist activity for muscle nAChR. Effective competitive antagonist at α4β2 nAChR.; activation of the heteromeric neuronal nAChR tested (Summary) (other nAChR tested): A potent full agonist for α7 nAChR with negligible activation of the heteromeric neuronal nAChR tested but with low-potency partial agonist activity for muscle nAChR. Effective competitive antagonist at α4β2 nAChR.; activity at α4β2 nAChR (Summary) (other nAChR tested): A potent full agonist for α7 nAChR with negligible activation of the heteromeric neuronal nAChR tested but with low-potency partial agonist activity for muscle nAChR. Effective competitive antagonist at α4β2 nAChR.; activity for muscle nAChR (Summary) (other nAChR tested): A potent full agonist for α7 nAChR with negligible activation of the heteromeric neuronal nAChR tested but with low-potency partial agonist activity for muscle nAChR. Effective competitive antagonist at α4β2 nAChR.
20 | CC[N+]12CCC(CC1)CC2.[I-] [EQN, 1-ethyl-1-azoniabicyclo[2.2.2]octane iodide] | – | – | – | – | – | – | – | – | agonist character at α7 (α7 nAChR [1]): weak partial agonist; mecamylamine-sensitive current, % of the total current (α7 nAChR [1]): 58 ± 3%; agonist character at α3β4 (α3β4 nAChR): comparable with the current evoked in uninjected oocytes
21 | C[N+]1(C)CCCCC1 [Dimethyl piperidinium] | – | – | – | – | – | – | – | – | Effects on 5HT3 Receptors (5HT3 receptors [2]): Antagonist activity reported
22 | C1CN2CCC1CC2 [QN, quinuclidine] | ≈2% | 74 ± 5% | 3% | N.S. | N | N.S. | 1.03 ± 0.02 | 0.64 ± 0.01 | Emax (α4β2 nAChR [3]; read-out: α4β2 response, % of the ACh maximal responses): 3.2 ± 0.7%; activation of muscle-type nAChRs [5]: detectable activation; EC50 (α7 nAChR [1]): 7.2 ± 0.5 µM; agonist character at α7 (α7 nAChR [1]): potent and fully efficacious agonist; selectivity classification (α7 nAChR [1]): non-α7-selective; α7 activation at 300 µM (α7 nAChR [1]): maximal activation; EC50 (α3β4 nAChR): 180 ± 10 µM; agonist character at α3β4 (α3β4 nAChR): partial agonist; α3β4 efficacy, % that of ACh (α3β4 nAChR): 64%; α3β4 response, % of the ACh maximum (α3β4 nAChR): 46 ± 2%
23 | C[N+](C)(C)C [TMA, tetramethyl-ammonium, reference compound] | 19 ± 6% | N.S. | <2% | N.S. | N | N.S. | 1.1 ± 0.1 | 0.55 ± 0.03 | activation of muscle-type nAChRs [5]: detectable activation; selectivity classification (α7 nAChR [1]): non-α7-selective; EC50 (α7 nAChR [1]; read-out: α7 EC50): 30 ± 3 µM; agonist character at α3β4 (α3β4 nAChR): partial agonists; EC50 (α3β4 nAChR; read-out: α3β4 EC50): 350 ± 190 µM
24 | CC[N+](C)(C)C [ETMA, reference compound] | ≤2% | 40 ± 9% | N | N.S. | N | N.S. | 1.0 ± 0.1 | 0.78 ± 0.04 | EC50 (α7 nAChR [1]; read-out: α7 EC50): 19 ± 2 µM; agonist character at α3β4 (α3β4 nAChR): partial agonists; EC50 (α3β4 nAChR; read-out: α3β4 EC50): 660 ± 90 µM
